From US10548898B2, “Quinazoline compounds” (Gilead Sciences, Inc., priority 2014, dated 2020)
Where two headings read alike, the source gives them in different places.

What was measured:
Assay type in all cases: cell-based
[1] = tested on: HIV-1 HBX2 (wild type); experiment: High throughput cytopathic effect assay in MT-4 cells, wild type HIV-1
Text: (§1) Compounds were screened in a miniaturized, high throughput cytopathic effect assay for activity against HIV-1 HBX2 (wild type) and HIV-1 reverse transcriptase mutants K103N and Y181C. In Tables 1 and 2 below. “w.t.” refers to results of the tested compounds run with the wildtype 1 and “w.t, assay 2” refers results of the tested compounds run with the wildtype on the same day as the testing of the compounds with the mutants. Thus, “w.t, assay 2” was run under the same conditions as the testing of the compounds with the mutants and provides a direct comparison with the results from the testing with the mutants.
(§2) Ten-point serial dilutions of compounds with half-log step size were generated in DMSO. AZT ([…]) was used as the positive control and DMSO as the negative control. The Echo acoustic dispenser was used to deliver 200 nL of serially diluted compound into sterile 384 well tissue culture assay plates. Two million MT-4 cells were incubated with each of the 3 viruses at MOI of 0.0005 in separate 1 mL infection tubes for 1 hour at 37° C. The cells were diluted in cell culture medium (RPMI+10% FBS) to 50.000 cells/mL. The infected cells were added to 384 well assay plates containing serially dilute compounds. Assay plates were incubated for 5 days in a humidified incubator set at 37° C. and 5% CO2. To measure the cytopathic effect of HIV, 40 μL Cell TiterGlo was added to each well and the resulting luminescence signal is read with the Envision plate reader (Perkin Elmer). Data were normalized to positive and negative controls in each plate and expressed as % CPE Protection. EC50 values were defined as the compound concentration that caused a 50% decrease in luminescence signal, and were calculated by non-linear regression using Pipeline Pilot software by applying a four parameter fit equation (Accelrys, San Diego, Calif.).

[2] = tested on: HIV-1 reverse transcriptase mutant K103N; experiment: High throughput cytopathic effect assay in MT-4 cells, K103N mutant; settings: for EC50: Human immunodeficiency virus 1, MT4, 120 h, read-out: MT4 EC50 (nM) against K103N; for FC against mutant K103N: fold change of MT4 EC50 versus w.t. assay 2
Text: as §1, §2

[3] = tested on: HIV-1 reverse transcriptase mutant Y181C; experiment: High throughput cytopathic effect assay in MT-4 cells, Y181C mutant; settings: for EC50: Human immunodeficiency virus 1, MT4, 120 h, read-out: MT4 EC50 (nM) against Y181C; for FC against mutant Y181C: fold change of MT4 EC50 versus w.t. assay 2
Text: as §1, §2

[4] = tested on: HIV-1 recombinant strain encoding reverse transcriptase mutation K103N; experiment: Resistance profile against HIV-1 RT mutants in MT-2 cells, K103N; settings: ratio of mean EC50 mutant/WT virus
Description: (§3) Compounds were tested for antiviral activity against a panel of NNRTI resistant viruses. A panel of 8 clonal site-directed mutant viruses representing the major resistance development pathways against rilpivirine (“RPV”), efavirenz (“EFV”), and nevirapine (“NVP”), containing both single and double mutations within HIV-1 reverse transcriptase was employed. Further details and background can be found in Janssen et al. J. Med. Chem, 2005, 48, 1901-1909; Das et al., Proc. Nat. Acad. Sci., 2008, vol., 105, no. 5, 1466-1471; and Kuroda et al., Nature Chemistry, 2013, DOI: 10.1038/NCHEM. 1559. […] HIV-1 recombinant strains encoding reverse transcriptase mutations K103N, Y181C, Y188L, G190A, K103N/Y181C, L1001/Y181C, E138K or E138KIM 184V were constructed by site-directed mutagenesis. Wild-type and mutant viruses were prepared by transfecting infectious proviral HXB2-based cDNA clones into MT-2 cells and harvesting the cell supernatants. MT-2 cells were infected with wild-type and mutant HIV-1 strains at a multiplicity of infection (MOI) of 0.005 by gentle mixing for 3 hours at 37° C. and then added at a density of 16,667 cells per well in 50 μL complete RPMI cell culture media (containing 10% fetal bovine serum (FBS) and 10% penicillin-streptomycin) to 96-well plates containing 50 μL of a 3-fold serial dilution of test compounds in RPMI medium. After 5 days of incubation at 37° C. in a humidified incubator in the presence of 5% CO2. 100 μL of Cell Titer-Glo™ Reagent (Promega Biosciences, Inc., Madison, Wis.) was added to each well and the relative light units (RLU) measured on an Envision plate reader. […] The EC50 value was defined as the compound concentration inducing a 50% decrease in virus replication. Data analysis for the antiviral activity observed in MT-2 cells was performed using XL-Fit™ software (IDBS, Guildford, Surrey, UK) to calculate EC50 from an 8-point dose-response curve using the following equation:
(§4) [formula] where y=virus inhibition, x=drug concentration, M=maximum inhibition, H=minimum inhibition and n=Hill coefficient, EC50 values (mean±standard deviation) were calculated from at least three independent experiments performed in triplicate. The level of resistance was calculated as a ratio of the mean EC50 for each mutant/WT virus. Results are disclosed in FIG. 1 and in Tables 3 and 4 below.

[5] = tested on: HIV-1 recombinant strain encoding reverse transcriptase mutation Y181C; experiment: Resistance profile against HIV-1 RT mutants in MT-2 cells, Y181C; settings: ratio of mean EC50 mutant/WT virus
Description: as §3, §4

[6] = tested on: HIV-1 recombinant strain encoding reverse transcriptase mutation L100I/Y181C; experiment: Resistance profile against HIV-1 RT mutants in MT-2 cells, L100I/Y181C; settings: ratio of mean EC50 mutant/WT virus
Description: as §3, §4

[7] = tested on: HIV-1 recombinant strain encoding reverse transcriptase mutation K103N/Y181C; experiment: Resistance profile against HIV-1 RT mutants in MT-2 cells, K103N/Y181C; settings: ratio of mean EC50 mutant/WT virus
Description: as §3, §4

[8] = tested on: HIV-1 recombinant strain encoding reverse transcriptase mutation Y188L; experiment: Resistance profile against HIV-1 RT mutants in MT-2 cells, Y188L; settings: ratio of mean EC50 mutant/WT virus
Description: as §3, §4

[9] = Human immunodeficiency virus 1, MT4, 120 h, MT-4 cells, 5 days, cytopathic effect, Cell TiterGlo, read-out: MT4 EC50 (nM) against w.t.
[10] = Human immunodeficiency virus 1, MT4, read-out: MT4 EC50 (nM) against w.t. assay 2

Compound	EC50 [1, 9]	EC50 [1, 10]	EC50 [2]	FC against mutant K103N [2]	EC50 [3]	FC against mutant Y181C [3]	Biology resistance panel-low throughput fold change (FC) K103N [4]	Biology resistance panel-low throughput fold change (FC) Y181C [5]	Biology resistance panel-low throughput fold change (FC) L100I/Y181C [6]	Biology resistance panel-low throughput fold change (FC) K103N/Y181C [7]	Biology resistance panel-low throughput fold change (FC) Y188L [8]	EC50 ([1]; Human immunodeficiency virus 1, MT4, 120 h, read-out: MT4 EC50 (nM) against w.t.)
Cc1cc(/C=C/C#N)cc(C)c1-c1cc(F)cc2cnc(Nc3ccc(C#N)cc3)nc12 [Compound 4, (E)-4-((8-(4-(2-Cyanovinyl)-2,6-dimethylphenyl)-6-fluoroquinazolin-2-yl)amino)benzonitrile]	9.2 nM	9.8 nM	19.1 nM	2.0	47 nM	4.8	1.4	4.9	5.4	12.8	16.9	–
COc1cc(Nc2nc(N)c3cccc(-c4c(C)cc(/C=C/C#N)cc4C)c3n2)ccc1C#N [Compound 3, (E)-4-((4-Amino-8-(4-(2-cyanovinyl)-2,6-dimethylphenyl)quinazolin-2-yl)amino)-2-methoxybenzonitrile]	–	12.9 nM	12 nM	0.9	50.2 nM	3.9	1.0	3.4	1.0	3.4	13.7	–
N#C/C=C/c1cc(F)c(-c2cccc3cnc(Nc4ccc(C#N)cc4)nc23)c(F)c1 [Compound 5, (E)-4-((8-(4-(2-Cyanovinyl)-2,6-difluorophenyl)quinazolin-2-yl)amino)benzonitrile]	1.3 nM	1.5 nM	2.5 nM	1.7	12 nM	8.2	1.6	15.4	18.9	208.0	174.0	–
COc1ccc(-c2c(C)cc(/C=C/C#N)cc2C)c2nc(Nc3ccc(C#N)cc3)nc(N)c12 [Compound 28, (E)-4-((4-Amino-8-(4-(2-cyanovinyl)-2,6-dimethylphenyl)-5-methoxyquinazolin-2-yl)amino)benzonitrile]	11.4 nM	9.1 nM	14.3 nM	1.6	57.2 nM	6.3	–	–	–	–	–	–
COc1cc(/C=C/C#N)cc(OC)c1-c1cccc2cnc(Nc3ccc(C#N)cc3)nc12 [Compound 33, (E)-44-((8-(4-(2-Cyanovinyl)-2,6-dimethoxyphenyl)quinazolin-2-yl)amino)benzonitrile]	2.1 nM	1.5 nM	3.2 nM	2.1	12.3 nM	7.9	–	–	–	–	–	–
C/C(=C/C#N)c1cc(C)c(-c2cccc3c(N)nc(Nc4ccc(C#N)cc4)nc23)c(C)c1 [Compound 39, (Z)-4-((4-Amino-8-(4-(1-cyanoprop-1-en-2-yl)-2,6-dimethylphenyl)quinazolin-2-yl)amino)benzonitrile]	5.9 nM	8.9 nM	12.1 nM	1.4	27.2 nM	3.0	–	–	–	–	–	–
Cc1cc(/C=C/C#N)cc(C)c1-c1cc(F)cc2c(N)nc(Nc3ccc(C#N)nn3)nc12 [Compound 27, (E)-6-((4-Amino-8-(4-(2-cyanovinyl)-2,6-dimethylphenyl)-6-fluoroquinazolin-2-yl)amino)pyridazine-3-carbonitrile]	6.3 nM	3.8 nM	5.3 nM	1.4	400 nM	105.9	–	–	–	–	–	–
COc1cc(-c2c(C)cc(/C=C/C#N)cc2C)c2nc(Nc3ccc(C#N)cn3)nc(N)c2c1 [Compound 24, (E)-6-((4-Amino-8-(4-(2-cyanovinyl)-2,6-dimethylphenyl)-6-methoxyquinazolin-2-yl)amino)nicotinonitrile]	–	27.8 nM	32.5 nM	1.2	478 nM	17.2	–	–	–	–	–	27.8 nM
Cc1cc(/C=C/C#N)cc(C)c1-c1cccc2c(NC(N)=O)nc(Nc3ccc(C#N)cc3)nc12 [Compound 37, (E)-1-(2-((4-Cyanophenyl)amino)-8-(4-(2-cyanovinyl)-2,6-dimethylphenyl)quinazolin-4-yl)urea]	4.7 nM	6.8 nM	7.8 nM	1.2	22.1 nM	3.3	–	–	–	–	–	–
Cc1cc(/C=C/C#N)cc(C)c1-c1cc(F)cc2c(N)nc(Nc3ccc(C#N)cn3)nc12 [Compound 20, (E)-6-((4-Amino-8-(4-(2-cyanovinyl)-2,6-dimethylphenyl)-6-fluoroquinazolin-2-yl)amino)nicotinonitrile]	7 nM	6.6 nM	7.1 nM	1.1	69.9 nM	10.5	–	–	–	–	–	–
COc1ccc(-c2c(C)cc(/C=C/C#N)cc2C)c2nc(Nc3ccc(C#N)cn3)nc(N)c12 [Compound 29, (E)-6-((4-Amino-8-(4-(2-cyanovinyl)-2,6-dimethylphenyl)-5-methoxyquinazolin-2-yl)amino)nicotinonitrile]	22.1 nM	18.6 nM	33.4 nM	1.8	> 500 nM	>26.9	–	–	–	–	–	–
Cc1cc(-c2c(C)cc(/C=C/C#N)cc2C)c2nc(Nc3ccc(C#N)cn3)nc(N)c2c1 [Compound 21, (E)-6-((4-Amino-8-(4-(2-cyanovinyl)-2,6-dimethylphenyl)-6-methylquinazolin-2-yl)amino)nicotinonitrile]	10.1 nM	10.6 nM	10.8 nM	1.0	187 nM	17.6	–	–	–	–	–	–
CNc1nc(Nc2ccc(C#N)cc2)nc2c(-c3c(C)cc(/C=C/C#N)cc3C)cccc12 [Compound 30, (E)-4-((8-(4-(2-Cyanovinyl)-2,6-dimethylphenyl)-4-(methylamino)quinazolin-2-yl)amino)benzonitrile]	15.9 nM	13 nM	17 nM	1.3	55.6 nM	4.3	–	–	–	–	–	–
